Experiments:
Test in all cases: relative viability vs DMSO control (72 h) (fraction); higher = more viable cells
[1] = system: G401
Summary of the method: (§1)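 Relative viability is percent growth read by ATPLite and averaged over up to triplicate wells. Sarcoma cells were seeded in 384-well plates to reach 80–90% confluence and given 2.5 µl of serially diluted compound after 24 h, from source plates of 10 mM to 0.0002 mM. Incubation lasted 72 h at 37 °C, 5% CO2, with 0.1% DMSO vehicle and a 5 µM positive control, and the data were rescaled so 1 equals full and 0 equals none.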

[2] = system: HS729
Summary of the method: as §1

[3] = system: HT1080
Summary of the method: as §1

[4] = system: KHOS-240S
Summary of the method: as §1

[5] = system: KHOS-NP
Summary of the method: as §1

[6] = system: RD-ES
Summary of the method: as §1

[7] = system: RD
Summary of the method: as §1

[8] = system: SK-LMS-1
Summary of the method: as §1

[9] = system: SW1353
Summary of the method: as §1

[10] = system: SW684
Summary of the method: as §1

[11] = system: SW872
Summary of the method: as §1

[12] = system: SYO-1
Summary of the method: as §1

Cc1cc2cc(Oc3ccnc(Nc4cccc(CS(=O)(=O)NCCN(C)C)c4)n3)ccc2[nH]1 [Sulfatinib]
Conditions | relative viability
[1], 0.00017 µM | 1.024
[1], 0.00051 µM | 0.976
[1], 0.00152 µM | 1.01
[1], 0.00457 µM | 0.995
[1], 0.01372 µM | 1.04
[1], 0.04115 µM | 0.993
[1], 0.1235 µM | 0.983
[1], 0.3704 µM | 1.02
[1], 1.111 µM | 0.969
[1], 3.333 µM | 0.536
[1], 10 µM | 0.157
[2], 0.00017 µM | 0.983
[2], 0.00051 µM | 0.993
[2], 0.00152 µM | 0.979
[2], 0.00457 µM | 0.9
[2], 0.01372 µM | 0.939
[2], 0.04115 µM | 0.872
[2], 0.1235 µM | 0.877
[2], 0.3704 µM | 0.843
[2], 1.111 µM | 0.768
[2], 3.333 µM | 0.629
[2], 10 µM | 0.49
[3], 0.00017 µM | 1.023
[3], 0.00051 µM | 0.983
[3], 0.00152 µM | 0.997
[3], 0.00457 µM | 1.03
[3], 0.01372 µM | 1.03
[3], 0.04115 µM | 1.03
[3], 0.1235 µM | 1.01
[3], 0.3704 µM | 1.044
[3], 1.111 µM | 0.969
[3], 3.333 µM | 1.05
[3], 10 µM | 0.878
[4], 0.00017 µM | 1.02
[4], 0.00051 µM | 1.02
[4], 0.00152 µM | 1.02
[4], 0.00457 µM | 1.03
[4], 0.01372 µM | 1.05
[4], 0.04115 µM | 1.02
[4], 0.1235 µM | 1.012
[4], 0.3704 µM | 0.961
[4], 1.111 µM | 0.936
[4], 3.333 µM | 0.741
[4], 10 µM | 0.382
[5], 0.00017 µM | 1.05
[5], 0.00051 µM | 1.05
[5], 0.00152 µM | 1.03
[5], 0.00457 µM | 1.006
[5], 0.01372 µM | 1.03
[5], 0.04115 µM | 1.019
[5], 0.1235 µM | 1.04
[5], 0.3704 µM | 1.026
[5], 1.111 µM | 1.01
[5], 3.333 µM | 1.01
[5], 10 µM | 0.963
[6], 0.00017 µM | 1.02
[6], 0.00051 µM | 0.998
[6], 0.00152 µM | 1.01
[6], 0.00457 µM | 0.996
[6], 0.01372 µM | 1.023
[6], 0.04115 µM | 1
[6], 0.1235 µM | 1
[6], 0.3704 µM | 1.01
[6], 1.111 µM | 0.992
[6], 3.333 µM | 0.87
[6], 10 µM | 0.579
[7], 0.00017 µM | 1.074
[7], 0.00051 µM | 1.09
[7], 0.00152 µM | 1.09
[7], 0.00457 µM | 1.123
[7], 0.01372 µM | 1.1
[7], 0.04115 µM | 1.094
[7], 0.1235 µM | 1.12
[7], 0.3704 µM | 1.09
[7], 1.111 µM | 1.07
[7], 3.333 µM | 0.981
[7], 10 µM | 0.456
[8], 0.00017 µM | 1
[8], 0.00051 µM | 1.07
[8], 0.00152 µM | 1.01
[8], 0.00457 µM | 1.04
[8], 0.01372 µM | 1.04
[8], 0.04115 µM | 1.03
[8], 0.1235 µM | 1.03
[8], 0.3704 µM | 0.986
[8], 1.111 µM | 1.01
[8], 3.333 µM | 0.924
[8], 10 µM | 0.531
[9], 0.00017 µM | 0.936
[9], 0.00051 µM | 0.911
[9], 0.00152 µM | 0.925
[9], 0.00457 µM | 0.941
[9], 0.01372 µM | 0.975
[9], 0.04115 µM | 0.922
[9], 0.1235 µM | 0.964
[9], 0.3704 µM | 0.931
[9], 1.111 µM | 0.906
[9], 3.333 µM | 0.845
[9], 10 µM | 0.565
[10], 0.00017 µM | 1.11
[10], 0.00051 µM | 1.09
[10], 0.00152 µM | 1.09
[10], 0.00457 µM | 1.12
[10], 0.01372 µM | 1.08
[10], 0.04115 µM | 1.07
[10], 0.1235 µM | 1.04
[10], 0.3704 µM | 1.1
[10], 1.111 µM | 1.05
[10], 3.333 µM | 0.995
[10], 10 µM | 0.555
[11], 0.00017 µM | 1.02
[11], 0.00051 µM | 1.05
[11], 0.00152 µM | 1.02
[11], 0.00457 µM | 1.02
[11], 0.01372 µM | 1
[11], 0.04115 µM | 0.996
[11], 0.1235 µM | 1.02
[11], 0.3704 µM | 1.02
[11], 1.111 µM | 0.973
[11], 3.333 µM | 0.88
[11], 10 µM | 0.526
[12], 0.00017 µM | 0.943
[12], 0.00051 µM | 0.962
[12], 0.00152 µM | 0.945
[12], 0.00457 µM | 0.938
[12], 0.01372 µM | 0.9
[12], 0.04115 µM | 0.865
[12], 0.1235 µM | 0.805
[12], 0.3704 µM | 0.607
[12], 1.111 µM | 0.423
[12], 3.333 µM | 0.341
[12], 10 µM | 0.105

CCN(CC)CCNC(=O)c1c(C)[nH]c(/C=C2\C(=O)Nc3ccc(F)cc32)c1C [Sunitinib]
Conditions | relative viability
[1], 0.00017 µM | 1.01
[1], 0.00051 µM | 0.984
[1], 0.00152 µM | 0.982
[1], 0.00457 µM | 0.99
[1], 0.01372 µM | 0.999
[1], 0.04115 µM | 0.996
[1], 0.1235 µM | 0.959
[1], 0.3704 µM | 0.98
[1], 1.111 µM | 0.892
[1], 3.333 µM | 0.628
[1], 10 µM | 0.00473
[2], 0.00017 µM | 0.928
[2], 0.00051 µM | 0.877
[2], 0.00152 µM | 0.835
[2], 0.00457 µM | 0.819
[2], 0.01372 µM | 0.799
[2], 0.04115 µM | 0.761
[2], 0.1235 µM | 0.731
[2], 0.3704 µM | 0.68
[2], 1.111 µM | 0.518
[2], 3.333 µM | 0.268
[2], 10 µM | 0.0045
[3], 0.00017 µM | 1.13
[3], 0.00051 µM | 1.051
[3], 0.00152 µM | 1.1
[3], 0.00457 µM | 1.06
[3], 0.01372 µM | 1.08
[3], 0.04115 µM | 1.07
[3], 0.1235 µM | 1.11
[3], 0.3704 µM | 1.14
[3], 1.111 µM | 1.06
[3], 3.333 µM | 0.113
[3], 10 µM | 0.00267
[4], 0.00017 µM | 1.06
[4], 0.00051 µM | 1.06
[4], 0.00152 µM | 1.05
[4], 0.00457 µM | 1.05
[4], 0.01372 µM | 1.04
[4], 0.04115 µM | 1.03
[4], 0.1235 µM | 0.958
[4], 0.3704 µM | 0.875
[4], 1.111 µM | 0.655
[4], 3.333 µM | 0.204
[4], 10 µM | 0.0104
[5], 0.00017 µM | 1.04
[5], 0.00051 µM | 1.06
[5], 0.00152 µM | 1.05
[5], 0.00457 µM | 1.05
[5], 0.01372 µM | 1.06
[5], 0.04115 µM | 1.047
[5], 0.1235 µM | 1.069
[5], 0.3704 µM | 1.065
[5], 1.111 µM | 0.973
[5], 3.333 µM | 0.381
[5], 10 µM | 0.0257
[6], 0.00017 µM | 0.955
[6], 0.00051 µM | 0.952
[6], 0.00152 µM | 0.968
[6], 0.00457 µM | 0.97
[6], 0.01372 µM | 0.964
[6], 0.04115 µM | 0.958
[6], 0.1235 µM | 0.895
[6], 0.3704 µM | 0.752
[6], 1.111 µM | 0.276
[6], 3.333 µM | 0.0097
[6], 10 µM | 0.00923
[7], 0.00017 µM | 1.11
[7], 0.00051 µM | 1.11
[7], 0.00152 µM | 1.13
[7], 0.00457 µM | 1.13
[7], 0.01372 µM | 1.12
[7], 0.04115 µM | 1.11
[7], 0.1235 µM | 1.14
[7], 0.3704 µM | 1.1
[7], 1.111 µM | 0.958
[7], 3.333 µM | 0.0418
[7], 10 µM | 0.00227
[8], 0.00017 µM | 1.11
[8], 0.00051 µM | 1.13
[8], 0.00152 µM | 1.08
[8], 0.00457 µM | 1.07
[8], 0.01372 µM | 1.12
[8], 0.04115 µM | 1.1
[8], 0.1235 µM | 1.09
[8], 0.3704 µM | 1.02
[8], 1.111 µM | 0.884
[8], 3.333 µM | 0.706
[8], 10 µM | 0.0084
[9], 0.00017 µM | 0.978
[9], 0.00051 µM | 0.994
[9], 0.00152 µM | 0.968
[9], 0.00457 µM | 0.984
[9], 0.01372 µM | 0.951
[9], 0.04115 µM | 0.972
[9], 0.1235 µM | 0.981
[9], 0.3704 µM | 1
[9], 1.111 µM | 0.988
[9], 3.333 µM | 0.017
[9], 10 µM | 0.0071
[10], 0.00017 µM | 1.17
[10], 0.00051 µM | 1.16
[10], 0.00152 µM | 1.18
[10], 0.00457 µM | 1.15
[10], 0.01372 µM | 1.144
[10], 0.04115 µM | 1.17
[10], 0.1235 µM | 1.181
[10], 0.3704 µM | 1.07
[10], 1.111 µM | 0.871
[10], 3.333 µM | 0.609
[10], 10 µM | 0.001
[11], 0.00017 µM | 1.04
[11], 0.00051 µM | 1.05
[11], 0.00152 µM | 1.03
[11], 0.00457 µM | 1.03
[11], 0.01372 µM | 1.04
[11], 0.04115 µM | 1.02
[11], 0.1235 µM | 0.993
[11], 0.3704 µM | 0.81
[11], 1.111 µM | 0.587
[11], 3.333 µM | 0.416
[11], 10 µM | -0.00493
[12], 0.00017 µM | 0.952
[12], 0.00051 µM | 0.9234
[12], 0.00152 µM | 0.886
[12], 0.00457 µM | 0.813
[12], 0.01372 µM | 0.706
[12], 0.04115 µM | 0.665
[12], 0.1235 µM | 0.601
[12], 0.3704 µM | 0.494
[12], 1.111 µM | 0.406
[12], 3.333 µM | -0.00767
[12], 10 µM | -0.00903
